Columns and labels:
[1] = molecular target: T1, G-protein coupled bile acid receptor 1 (Homo sapiens, UniProt Q8TDU6); test: Agonist activity at human TGR5; format: functional
T1 sequence (Q8TDU6 whole entry): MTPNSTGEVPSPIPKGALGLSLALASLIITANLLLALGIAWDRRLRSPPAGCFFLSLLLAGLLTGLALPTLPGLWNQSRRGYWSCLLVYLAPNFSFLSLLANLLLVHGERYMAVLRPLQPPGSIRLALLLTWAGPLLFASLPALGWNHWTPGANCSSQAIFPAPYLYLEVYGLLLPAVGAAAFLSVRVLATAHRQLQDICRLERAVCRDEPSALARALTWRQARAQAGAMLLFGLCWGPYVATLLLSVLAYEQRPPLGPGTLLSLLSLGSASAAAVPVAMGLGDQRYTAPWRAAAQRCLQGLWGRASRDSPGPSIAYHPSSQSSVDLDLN

[2] = molecular target: T1, G-protein coupled bile acid receptor 1; test: Agonist activity at TGR5 (unknown origin) by TR-FRET assay; format: functional
[3] = molecular target: T1, G-protein coupled bile acid receptor 1; test: Agonist activity at human TGR5 expressed in HEK293 cells; format: functional, cell-based
[4] = molecular target: T1, G-protein coupled bile acid receptor 1; test: Agonist activity at TGR5 (unknown origin) expressed in HEK293T cells assessed as cAMP level by TR-FRET analysis; format: functional, cell-based

EC50 [2]	Compound	further results
–	COc1ccc(S(=O)(=O)N2CCN(S(=O)(=O)c3ccc(OC)c(OC)c3)CC2)cc1OC	EC50 [1]: 1300 nM
50 nM	O=C(c1cccnc1Oc1cc(Cl)ccc1Cl)N1CCCc2ccc(F)cc21	–
50 nM	O=C(c1cccnc1Oc1cc(Cl)ccc1Cl)N1CCCc2cc(F)c(F)cc21	–
–	Fc1cccc(F)c1-c1ccncc1CN1C(c2ccco2)=NOC1c1cc(C(F)(F)F)cc(C(F)(F)F)c1Cl (configuration not stated)	EC50 [3]: 15 nM
10 nM	O=C(c1cccnc1Oc1cc(Cl)ccc1Cl)N1CCN(C2CC2)c2ccccc21	–
20 nM	O=C(c1cccnc1Oc1cc(Cl)ccc1Cl)N1CCCc2cc(F)ccc21	–
–	COc1ccc(C(C)(C)c2cn(-c3ccc(F)cc3)c(SCc3c(F)cccc3Cl)n2)cc1OC	EC50 [4]: 25 nM

— ChEMBL document CHEMBL6078626, “Recent advancements in the structural exploration of TGR5 agonists for diabetes treatment” (RSC Med Chem, 2024)
